# Key:
# [1] = target: MPXV VP39 2′-O-RNA methyltransferase (Monkeypox virus, UniProt A0A7H0DN74); assay: biochemical
# [2] = test system: SARS-CoV-2 nsp14 N7-MTase; conditions: cited from earlier work
# [3] = IC50, individual fit of data set 1
# [4] = IC50, individual fit of data set 2
# [5] = IC50 average (averaged IC50 values from independent measurement)
# MPXV VP39 2′-O-RNA methyltransferase, sequence (A0A7H0DN74 whole entry, looked up): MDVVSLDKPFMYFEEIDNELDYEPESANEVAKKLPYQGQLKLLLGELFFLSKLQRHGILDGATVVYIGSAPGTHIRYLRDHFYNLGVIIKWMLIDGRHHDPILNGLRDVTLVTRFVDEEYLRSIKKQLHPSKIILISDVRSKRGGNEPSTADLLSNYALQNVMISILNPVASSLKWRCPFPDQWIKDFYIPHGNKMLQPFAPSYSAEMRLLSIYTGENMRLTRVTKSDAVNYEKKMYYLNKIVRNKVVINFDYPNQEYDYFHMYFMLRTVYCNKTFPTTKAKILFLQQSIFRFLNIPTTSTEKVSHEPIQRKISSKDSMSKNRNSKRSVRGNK
Compound,"HillSlope, individual fit of data set 1 [1]","HillSlope, individual fit of data set 2 [1]","LogIC50, fit of all data points [1]","LogIC50, individual fit of data set 1 [1]","LogIC50, individual fit of data set 2 [1]",IC50 ([1]; IC50 (mean ± SEM)) [nM],"IC50 ([1]; IC50, fit of all data points) [nM]","IC50 [1, 3] [nM]","IC50 [1, 4] [nM]","IC50 [1, 5] [nM]",IC50 ([1]; IC50) [nM],inhibition of SARS-CoV-2 nsp14 [2]
Nc1ncnc2c1c(C#Cc1ccccc1)cn2[C@@H]1O[C@H](CSCC[C@H](N)C(=O)O)[C@@H](O)[C@H]1O [TO427],-1.507,-1.605,-0.9412,-0.9395,-0.9422,115 ± 0.4,114,115,114,115,,
C=Cc1cn([C@@H]2O[C@H](CSCC[C@H](N)C(=O)O)[C@@H](O)[C@H]2O)c2ncnc(N)c12 [TO1116],-0.9545,-1.033,-0.836,-0.8617,-0.8127,,146,138,154,146,,
Nc1ncnc2c1c(C#Cc1ccc3ccccc3c1)cn2[C@@H]1O[C@H](CSCC[C@H](N)C(=O)O)[C@@H](O)[C@H]1O [TO504],-1.768,-1.833,-1.107,-1.131,-1.08,,78.1,73.9,83.2,79,,
"Nc1ncnc2c1ncn2[C@@H]1O[C@H](C[C@@H](N)CC[C@H](N)C(=O)O)[C@@H](O)[C@H]1O [sinefungin, reference compound]",-0.961,-0.8657,0.3693,0.3792,0.3552,,2340,2390,2270,2330,2300,
Nc1ncnc2c1c(C#Cc1cnc3ccccc3c1)cn2[C@@H]1O[C@H](CSCC[C@H](N)C(=O)O)[C@@H](O)[C@H]1O [TO507],-1.446,-1.972,-0.9412,-0.9877,-0.8836,,114,103,131,117,,nanomolar inhibitors
CCc1cn([C@@H]2O[C@H](CSCC[C@H](N)C(=O)O)[C@@H](O)[C@H]2O)c2ncnc(N)c12 [TO1111],-1.277,-1.517,-1.058,-1.122,-0.9871,,87.5,75.5,103,89,,
Nc1ncnc2c1c(C#Cc1cccc3ccccc13)cn2[C@@H]1O[C@H](CSCC[C@H](N)C(=O)O)[C@@H](O)[C@H]1O [TO494],-1.676,~ -5.860,-0.9386,-1.017,~ -0.7109,,115,96.1,,145,,
Nc1ncnc2c1c(I)cn2[C@@H]1O[C@H](CSCC[C@H](N)C(=O)O)[C@@H](O)[C@H]1O [TO1119],-1.304,-1.575,-0.8937,-0.9194,-0.8669,,128,120,136,,128,
Nc1ncnc2c1c(C#Cc1nc3ccccc3[nH]1)cn2[C@@H]1O[C@H](CSCC[C@H](N)C(=O)O)[C@@H](O)[C@H]1O [TO500],-1.441,-1.353,-0.7728,-0.7814,-0.7635,,169,165,172,169,,

# Source: publication PMC10116469 (Nature Communications, 2023)
